From paper PMC9504842, “Comprehensive Metabolic Profiling of Euphorbiasteroid in Rats by Integrating UPLC-Q/TOF-MS and NMR as Well as Microbial Biotransformation” (Metabolites, 2022)
Like-named read-outs stand apart in the source and are kept apart here.

What was measured:
LO2 cells = assay: CCK-8 cell cytotoxicity assay, LO2; assay type: cell-based; details: Homo sapiens, read-out: IC50 (μM) LO2
Protocol: (§1) Cell cytotoxicity was determined by the CCK-8 assay. Four strains of human cells (SH-SY5Y) were seeded in 96-well plates at a density of 3 × 10^3 cells/well under 37 °C and 5% CO2 for 12 h and subsequently treated with the test sample solution (euphorbiasteroid and its metabolites, 10 μL) for 72 h. After treatment, each well with 10 μL CCK-8 reagent was incubated for 1–2 h in the incubator. Afterwards, the optical OD-value was measured at 450 nm through a microplate reader. Three multiple wells were set as parallel experimental groups.
(§2) Euphorbiasteroid and its metabolites were tested for their cytotoxicity on human cell lines SH-SY5Y, LO2, AC-16, and HK-2 by the CCK-8 assay. […] Therefore, considering the high content of euphorbiasteroid in Euphorbiae semen, it was speculated that the metabolites from hydroxylation and hydrolysis might be the potential toxic constituents of Euphorbiae semen.

AC-16 cells = assay: CCK-8 cell cytotoxicity assay, AC-16; assay type: cell-based; details: Homo sapiens, read-out: IC50 (μM) AC-16
Protocol: as §1, §2

HK-2 cells = assay: CCK-8 cell cytotoxicity assay, HK-2; assay type: cell-based; details: Homo sapiens, read-out: IC50 (μM) HK-2
Protocol: as §1, §2

[1] = system: Cunninghamella elegans bio-110930; assay: Microbial transformation of euphorbiasteroid, metabolite detection; details: C. elegans bio-110930 culture with euphorbiasteroid
Protocol: The biotransformation process was conducted at two scales: preliminary screening and preparative. Preliminary screening scale biotransformation of euphorbiasteroid was carried out in 250 mL Erlenmeyer flasks containing 100 mL of liquid medium. The flasks were placed on a rotary shaker (160 rpm, 28 °C). A standard two-stage fermentation protocol was employed in all experiments. After 2 days of pre-culture, the substrates of 5 mg (dissolved in 0.5 mL of acetone) were added into each flask. Taking 1 mL samples on days 0, 2, 4, 7, 10, and 14, samples were centrifuged and the degree of transformation was compared to controls on TLC and HPLC, and a 2-μL aliquot of the supernatant was directly injected into the UPLC-Q-TOF-MS system. Culture controls consisted of sterile medium, in which microorganisms were grown under identical conditions without substrate. Substrate controls were composed of sterile medium and the same amount of substrate incubated under the same conditions without microorganisms.
(§3) First, the metabolites of euphorbiasteroid in rats (plasma, urine, and feces), RLMs, and C. elegans culture medium were predicted by setting the prototype components and potential biological metabolic reactions in UNIFI 4.1 software. Then, the predicted metabolites in each sample were further compared according to the characteristic mass spectrum behaviors (including parent ions, internal cleavage in the ion source, and characteristic fragment ions of each metabolite) and retention times.

[2] = Metabolite detection in rats (plasma, urine, feces) after oral euphorbiasteroid by UPLC-Q/TOF-MS; assay type: in vivo, Sprague-Dawley rats; details: single oral dose 100 mg/kg euphorbiasteroid
Protocol: For metabolite separation and detection, chromatographic analyses were performed using a Waters Acquity UPLC I-class system (Waters, Milford, MA, USA), equipped with an auto-sampler, a binary solvent delivery system, an online degasser, and a photodiode array detector. An ACQUITY UPLC® HSS T3 column (2.1 × 150 mm, 1.8 μm, Waters) protected with a HSS T3 VanGuard ™ Pre-Column 3/Pk (2.1 × 5.0 mm, 1.8 μm, Waters) was used. The optimized parameters were set as follows: the mobile phase consisted of eluent A (0.1% formic acid in water, v/v) and eluent B (acetonitrile). The flow rate was 0.3 mL/min. The column and auto-sampler temperatures were maintained at 40 °C and 4 °C, respectively. The gradient elution program was optimized as follows: 0–9 min, 30–70% B; 9–13 min, 70–90% B; 13–17 min, 90–100% B; 17–20 min, 100–100% B.
The mass spectrometry detection was performed on the SYNAPT G2-Si HDMS system, equipped with an electrospray ionization (ESI) source (Waters Corp., Manchester, UK). A positive ion mode was conducted in this analysis. Mass spectrometry conditions were finally set as follows: capillary voltage of 3.0 kV, cone voltage of 40 V, source temperature of 120 °C, and de-solvation temperature of 400 °C. Nitrogen was used as the desolvation and cone gas with a flow rate of 800 and 50 L/h, respectively, and the full-scan mass range was set as m/z 50–1500 Da. In the auto mass spectrometry mode, the collision-induced dissociation energies were set at 0 eV for the precursor ion at the low-energy mode, and the collision-induced dissociation energies were set from 2 to 10 eV for the high-energy mode. Real-time data were calibrated using an external reference (LockSpray™) at a concentration of 0.2 ng/mL with an infusion flow rate of 5 μL/min, generating a reference ion for the positive ion mode (m/z 556.2771) during the UPLC-MS analysis. Data were acquired and processed using MassLynx ™ NT 4.1 software (Waters, Milford, MA, USA).
Male Sprague-Dawley rats (200–220 g) were commercially supplied by Shanghai Sippr-BK Laboratory Animal Co., Ltd. (Shanghai, China) and were housed in a humidity- and temperature-controlled room (50 ± 10% and 22–24 °C) with a 12-h light/dark cycle. The experimental rats were allowed to access food and water ad libitum and acclimatized to the conditions mentioned above for a week, then fasted overnight but with free access to water before the experiments. Euphorbiasteroid was dissolved in soybean oil solution (containing 0.5% ethanol) to form a concentration of 10 mg/mL. A single dose of 100 mg/kg euphorbiasteroid was orally administered to rats and the same concentration of soybean oil solution (containing 0.5% ethanol) was administered as a blank control. All animal procedures were performed in accordance with the Guidelines for Care and Use of Laboratory Animals of Naval Medical University and approved by the Animal Ethics Committee of Naval Medical University.
Blood samples (0.5 mL) were collected from six rats through the orbital sinus before administration (blank sample) and 0.25, 0.5, 1, 2, 4, 6, and 12 h after administration. Plasma samples were prepared by centrifugation at 4000 rpm for 10 min. For urine and feces sampling, 12 rats were divided into an administration group and a blank group, and were placed separately in stainless steel metabolic cages. Urine and feces samples were collected in containers surrounded by ice over 0–6, 6–12, and 12–24 h after drug administration. The mixed urine samples were centrifuged at 4000 rpm for 10 min at 4 °C to obtain the supernatants, and fecal samples were left in a cool and dry place until dry. All the biological samples were frozen at −80 °C before analysis.
An aliquot of 200 µL of plasma and urine samples was put in a 1.5 mL tube, respectively. 800 µL of acetonitrile was added and vortexed for 5 min to extract metabolites. Feces samples (1.0 g) were crushed and then ultrasonically extracted with acetonitrile (10 mL) for 30 min. […]

[3] = system: SH-SY5Y neuroblastoma cells; assay: CCK-8 cell cytotoxicity assay, SH-SY5Y; assay type: cell-based; details: Homo sapiens, read-out: IC50 (μM) SH-SY5Y
Protocol: as §1, §2

[4] = In vitro incubation of euphorbiasteroid with rat liver microsomes, metabolite detection; assay type: in vitro ADME; details: 37 °C, 1 h, NADPH regenerating system
Protocol: The microsomal incubation approach was based on previous metabolism studies published by Wintermeyer et al. and Franziska et al.. A 200 μL incubation system containing 10 μL of solution A, 2 μL of solution B, 5 μL of rat liver microsomes (20 mg/mL) and 182 μL 0.1 M PBS buffer (pH = 7.4) was constructed. The above solution was heated in a 37 °C water bath, then 1 μL of euphorbiasteroid (dissolved in DMSO solution, 10 mM) was used to start the reaction, and the mixture was then incubated at 37 °C for 1 h. The reactions were terminated by the addition of 200 μL of ice-cold acetonitrile. The mixture was then centrifuged at 13,000 rpm for 10 min, and a 2-μL aliquot of the supernatant was directly injected into the UPLC-Q-TOF-MS system.
as §3

[5] = system: human cell lines SH-SY5Y, LO2, AC-16, and HK-2; assay: CCK-8 cytotoxicity, summary over four human cell lines; assay type: cell-based; details: span over SH-SY5Y, LO2, AC-16, HK-2 (and over the named metabolites), read-out: IC50 values against four human cell lines
Protocol: as §1, §2

CC(=O)OC1C2C(OC(=O)Cc3ccccc3)C(C)CC2(OC(C)=O)C(=O)C(CO)=CC2C(CCC13CO3)C2(C)C (centres unmarked) [Compound M3, 20-hydroxyl euphorbiasteroid]
IC50 (LO2 cells; L02, 72 h): 37.4 ± 0.41 µM | IC50 (AC-16 cells; 72 h): 17.9 ± 0.19 µM | IC50 (HK-2 cells; HK-2, 72 h): 22.7 ± 0.25 µM | Distribution Fungi (metabolite detected) [1]: √ | Distribution Rat Faeces (metabolite detected) [2]: √ | Distribution Rat Plasma (metabolite detected) [2]: √ | Distribution Rat Urine (metabolite detected) [2]: √ | IC50 ([3]; 72 h): 39.6 ± 0.43 µM | Distribution RLMs (metabolite detected) [4]: √

CC1=CC2C(CCC3(CO3)C(O)C3C(O)C(C)CC3(O)C1=O)C2(C)C (centres unmarked) [Compound M24, epoxylathyrol]
IC50 (LO2 cells; L02, CCK-8, 72 h treatment): 38.9 ± 0.42 µM | IC50 (AC-16 cells; CCK-8, 72 h treatment): 21.7 ± 0.24 µM | IC50 [5]: 3.6 to 40.7 µM | IC50 (HK-2 cells; HK-2, CCK-8, 72 h treatment): 26.5 ± 0.29 µM | Distribution Rat Faeces (metabolite detected) [2]: √ | Distribution Rat Plasma (metabolite detected) [2]: √ | Distribution Rat Urine (metabolite detected) [2]: √ | IC50 ([3]; CCK-8, 72 h treatment): 40.7 ± 0.44 µM | Distribution RLMs (metabolite detected) [4]: √

CC(=O)OC1C2C(OC(=O)Cc3ccccc3)C(C)CC2(O)C(=O)C(C)=CC2C(CCC13CO3)C2(C)C (centres unmarked) [Compound M25, 15-deacetyl euphorbiasteroid]
IC50 (LO2 cells; L02, 72 h): 30.1 ± 0.33 µM | IC50 (AC-16 cells; 72 h): 3.6 ± 0.04 µM | IC50 (HK-2 cells; HK-2, 72 h): 16.1 ± 0.18 µM | Distribution Rat Faeces (metabolite detected) [2]: √ | Distribution Rat Plasma (metabolite detected) [2]: √ | Distribution Rat Urine (metabolite detected) [2]: √ | IC50 ([3]; 72 h): 33.3 ± 0.36 µM | Distribution RLMs (metabolite detected) [4]: √
